Among the data in patent US7645753B2, “Benzothiazole, thiazolopyridine, benzooxazole and oxazolopyridine derivatives” (Hoffmann-La Roche Inc., priority 2005, dated 2010) are Ki values, retold here.

pKi: −log10 of the molar value.

This experiment deals with T1, human subtype 5 somatostatin receptor (Homo sapiens, UniProt P35346).
T1 construct: host or cells: CHO cells, stably transfected; membranes prepared by sonication and fractionating centrifugation
T1 sequence (P35346 whole entry): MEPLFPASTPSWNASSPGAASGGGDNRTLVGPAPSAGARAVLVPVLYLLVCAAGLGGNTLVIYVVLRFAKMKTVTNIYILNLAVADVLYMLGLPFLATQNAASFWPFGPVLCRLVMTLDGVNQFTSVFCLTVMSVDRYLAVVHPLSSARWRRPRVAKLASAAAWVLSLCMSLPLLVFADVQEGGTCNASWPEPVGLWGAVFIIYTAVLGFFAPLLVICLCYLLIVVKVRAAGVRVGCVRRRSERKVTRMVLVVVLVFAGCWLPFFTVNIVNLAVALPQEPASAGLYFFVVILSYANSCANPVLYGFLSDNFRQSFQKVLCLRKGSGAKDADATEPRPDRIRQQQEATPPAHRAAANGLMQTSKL
As to the kind of experiment: Radioligand binding to membranes of CHO cells expressing human SSTR5 (125I-labeled 11-Tyr somatostatin-14 tracer). The settings on record: Ki calculated from IC50 by Cheng-Prussoff equation. As for the experimental part: A CHO cell line stably transfected with a plasmid encoding the human subtype 5 somatostatin receptor (GenBank accession number D16827) was obtained from Euroscreen. Cells were cultured and used for binding and functional assays.
Membranes of these cells were prepared by sonication in the presence of protease inhibitors and subsequent fractionating centrifugation. The protein concentration in the membrane preparation was determined using a commercial kit (BCA kit, Pierce, USA). Membranes were stored at −80° C. until use. After thawing, membranes were diluted in assay buffer (50 mM Tris-HCl at pH 7.4, 5 mM MgCl2 and 0.20% BSA) and subjected to dounce homogenization.
For binding studies, 0.1 mL membrane suspension, corresponding to app. 6×10^−15 mol receptor, was incubated for 1 h at room temperature with 0.05 nM ^125I-labeled tracer (11-Tyr somatostatin-14, Perkin-Elmer) and either test compounds in varying concentrations or, for the determination of non-specific binding, 0.001 mM non-labeled somatostatin-14. The incubation was stopped by filtration through GF/B glassfiber filters and washing with ice-cold wash buffer (50 mM Tris-HCl at pH 7.4). The bound radioactivity was measured after application of a scintillation cocktail (Microscint 40) and expressed as disintegrations per minute (dpm).
The receptor concentration was determined in a prior saturation experiment where a fixed, arbitrary amount of membranes was incubated with a concentration range of radio-labeled tracer. This allows estimating the total number of specific binding sites per amount of protein (i.e., Bmax), typically between 1 and 5 pmol/mg.
The concentration of the test compound required to result in half maximal inhibition of binding of the radio-labeled tracer (IC50) was estimated from a concentration-versus-dpm graph. The binding affinity (Ki) was calculated from the IC50 by applying the Cheng-Prussoff equation for single binding sites.
In the case of `CCOc1cc(CN2CCC(Nc3nc4cc(NC(=O)CC)ccc4o3)CC2)ccc1OC` [Example 243, N-{2-[1-(3-ethoxy-4-methoxy-benzyl)-piperidin-4-ylamino]-benzooxazol-5-yl}-propionamide], the pKi is 6.53. The same measure for `CCOc1cc(CN2CCC(Nc3nc4cc(S(N)(=O)=O)ccc4o3)CC2)cc(OCC)c1-n1cccc1` [Example 129, 2-[1-(3,5-diethoxy-4-pyrrol-1-yl-benzyl)-piperidin-4-ylamino]-benzooxazole-5-sulfonic acid amide]: 8.39; for `CCOc1cc(CN2CCC(Nc3nc4ccc(Cl)cc4o3)CC2)cc(OCC)c1-n1cccc1` [Example 94, (6-chloro-benzooxazol-2-yl)-[1-(3,5-diethoxy-4-pyrrol-1-yl-benzyl)-piperidin-4-yl]-amine]: 7.23.

What is called pKi is the Ki on a negative log10 scale, so that one unit is a factor of ten.
